Measured values taken from ChEMBL document CHEMBL1131087, “New cyclooxygenase-2/5-lipoxygenase inhibitors. 3. 7-tert-butyl-2, 3-dihydro-3,3-dimethylbenzofuran derivatives as gastrointestinal safe antiinflammatory and analgesic agents: variations at the 5 position” (J Med Chem, 1998).

Legend:
[1] = test system: Rattus norvegicus; experiment: Inhibition of paw swelling relative to the tebufelone in rat. Value was reported as Carrageenan paw edema index; assay type: functional
[2] = species on record: Rattus norvegicus; experiment: Analgesic activity in phenylquinone-induced abdominal constriction assay (PAC); assay type: functional, Abdomen; design: concentration or dose not given beside the values

## CC(C)NC(=O)c1cc(C(C)(C)C)c2c(c1)C(C)(C)CO2
[1]
  CPE index: 1.09
[2]
  Inhibition: 43%

## CC(C)(C)c1cc(-c2cscn2)cc2c1OCC2(C)C
[1]
  CPE index: 1.53
[2]
  Inhibition: 59%

## CC(C)(C)c1cc(C(=O)NCCO)cc2c1OCC2(C)C
[1]
  CPE index: 0.33

## CC(C)(C)c1cc(C(=O)NC2CCC2)cc2c1OCC2(C)C
[1]
  CPE index: 0

## CC(C)(C)c1cc(C(=O)c2nccs2)cc2c1OCC2(C)C
[1]
  CPE index: 0.75
[2]
  Inhibition: 28%

## CC(C)(C)c1cc(C(=O)NCCC2CC2)cc2c1OCC2(C)C
[1]
  CPE index: 0.06

## CCCNC(=O)Nc1cc(C(C)(C)C)c2c(c1)C(C)(C)CO2
[1]
  CPE index: 0.41

## CC(C)(C)c1cc(C(=O)c2ccco2)cc2c1OCC2(C)C
[1]
  CPE index: 0.7
[2]
  Inhibition: 24%

## CC(C)(C)c1cc(-c2cocn2)cc2c1OCC2(C)C
[1]
  CPE index: 0.19

## CC(C)(C)c1cc(C(=O)c2ccoc2)cc2c1OCC2(C)C
[1]
  CPE index: 0.68
[2]
  Inhibition: 3%

## CCN(C(=O)c1cc(C(C)(C)C)c2c(c1)C(C)(C)CO2)C1CC1
[1]
  CPE index: 1.14

## CC(C)(C)c1cc(C(=O)N2CCCC2)cc2c1OCC2(C)C
[1]
  CPE index: 0.78

## CC(C)(C)c1cc(-c2ccco2)cc2c1OCC2(C)C
[1]
  CPE index: 0.93
[2]
  Inhibition: 7%

## Cc1cc(/C=C\c2cc(C(C)(C)C)c3c(c2)C(C)(C)CO3)[nH]n1
[1]
  CPE index: 0.56
[2]
  Inhibition: 35%

## CC(C)(C)c1cc(C(=O)c2ccsc2)cc2c1OCC2(C)C
[1]
  CPE index: 0.62
[2]
  Inhibition: 40%

## CCCN(C)C(=O)c1cc(C(C)(C)C)c2c(c1)C(C)(C)CO2
[1]
  CPE index: 0.91
[2]
  Inhibition: 36%

## CC(C)(C)c1cc(C(=O)Nc2ccccc2)cc2c1OCC2(C)C
[1]
  CPE index: 0.01

## CC(C)(C)c1cc(/C=C(/C(=O)O)c2cccs2)cc2c1OCC2(C)C
[1]
  CPE index: 0.76
[2]
  Inhibition: 19%

## CC(C)(C)c1cc(C(=O)NCC(O)CO)cc2c1OCC2(C)C (centres undefined)
[1]
  CPE index: 0.51

## CN(C)C(=N)c1cc(C(C)(C)C)c2c(c1)C(C)(C)CO2
[1]
  CPE index: 0.47

## CC(C)(C)c1cc(-c2csc(N)n2)cc2c1OCC2(C)C
[1]
  CPE index: 0.26

## CC(C)(C)c1cc(C(=O)NCC2CC2)cc2c1OCC2(C)C
[1]
  CPE index: 0.44

## COC(=O)c1cc(C(C)(C)C)c2c(c1)C(C)(C)CO2
[1]
  CPE index: 0.16

## Cc1nc(-c2cc(C(C)(C)C)c3c(c2)C(C)(C)CO3)no1
[1]
  CPE index: 0.83

## CC(C)(C)c1cc(C(=O)NC2=NCCS2)cc2c1OCC2(C)C
[1]
  CPE index: 0.81
[2]
  Inhibition: 65%

## CC(C)(C)c1cc(C(=O)NC2CCCC2)cc2c1OCC2(C)C
[1]
  CPE index: 0

## CC(C)(C)c1cc(-c2cn3cc[s+]([O-])c3n2)cc2c1OCC2(C)C (centres undefined)
[1]
  CPE index: 0.96

## CN(C)CCNC(=O)c1cc(C(C)(C)C)c2c(c1)C(C)(C)CO2
[1]
  CPE index: 0

## CCNC(=O)Nc1cc(C(C)(C)C)c2c(c1)C(C)(C)CO2
[1]
  CPE index: 0.73
[2]
  Inhibition: 36%

## CC(C)(C)c1cc(C(=O)Nc2nccs2)cc2c1OCC2(C)C
[1]
  CPE index: 0.49

## CC(C)(C)c1cc(C(=O)N2CCCCC2)cc2c1OCC2(C)C
[1]
  CPE index: 0.52
[2]
  Inhibition: 34%

## CC(C)(C)c1cc(C(=O)N2CCSCC2)cc2c1OCC2(C)C
[1]
  CPE index: 0.71
[2]
  Inhibition: 29%

## CC(C)(C)c1cc(/C=C\c2cccnc2)cc2c1OCC2(C)C
[1]
  CPE index: 0.78
[2]
  Inhibition: 45%

## CC(C)(C)c1cc(C(=O)O)cc2c1OCC2(C)C
[1]
  CPE index: 0.47
